# Target: skeletal myofibrils (myosin ATPase activity)
# Assay: Skeletal Myofibril ATPase Assay
# Assay type: biochemical
# Conditions: PK-LDH coupled, absorbance at 340 nm
# Protocol: Overview: Myosin ATPase activity is assessed by using a coupled reaction system, in which ADP generated by the myosin ATPase function is coupled to the disappearance of NADH through the pyruvate kinase/lactate dehydrogenase (PK-LDH) system. Myosin ATPase activity produces ADP, which is used as a substrate for PK to produce pyruvate and regenerate ATP. The pyruvate is then used as a substrate by LDH to oxidize NADH to NAD+. The rate of the reaction is monitored through the time-dependent disappearance of NADH using absorbance at 340 nm. Inhibition of ATPase activity by the assayed compounds is indicated by a reduced rate of NADH loss, relative to vehicle-treated controls, over the experimental time window. To assess the selectivity of the assayed compounds for skeletal myofibrils, the compounds are counter-screened in cardiac myofibrils.
# Materials: The following stock solutions and reagents were used in the Skeletal Myofibril ATPase Assay:
# Stock Solutions of pCa buffer. Combine PIPES, CaCl2, and EGTA solutions with 70 mL of water. Adjust pH to 7.0 and bring final volume to 100 mL.
# Skeletal Myofibril ATPase Assay Procedure: BSA, ATP, NADH, PEP, and DTT solutions were thawed at room temperature, then transferred to ice. Pellet-frozen myofibrils (approximately twice the required volume) were transferred into a sufficiently large tube and capped. Myofibrils were thawed by rolling in a water bath for approximately 15 min at room temperature and cooled on ice. Buffers A and B were prepared by adjusting volumes as necessary for required number of wells and stored on ice. 0.5 μL of the compounds to be assayed were added into wells of a 384-well plate. Buffers A and B were mixed by inversion immediately prior to use, then 25 μL of each was dispensed using a Multidrop dispenser (Buffer A first, then Buffer B). The absorbance within the wells was measured at 340 nm, using a kinetic protocol in which the wells are read every 1.5-2 min for 1 h. The reaction rate was qualitatively assessed by subtracting the minimum absorbance value from the maximum value for each well, using either the SoftMax Pro plate reader software or a spreadsheet program such as Excel. Using GraphPad Prism 8.0, the data was normalized, with 100% activity defined as the absorbance change in the 1% DMSO vehicle wells and 0% assigned to no change in absorbance over the course of the experiment. The normalized data were fit to a variable-slope four-parameter logistic model, constraining the bottom to be 0 or greater. Compounds of Table 1 to 4 were tested and results of the assay appear in Table 5 herein. A=IC50 is less than or equal to 10 μM; B=IC50 is greater than 10 μM and less than 100 μM; C=IC50 is greater than 100 μM; […].
row,SMILES,IC50
1,"N#Cc1cncc(Cn2nc(-c3ccc(OC(F)F)nc3)ccc2=O)c1 [Compound 57, 5-((3-(6-(difluoromethoxy)pyridin-3-yl)-6-oxopyridazin-1(6H)-yl)methyl)nicotinonitrile]",10 to 100 µM
2,"O=c1ccc(-c2ccc(OC(F)F)nc2)nn1Cc1cncc(C(F)(F)F)c1 [Compound 76, 6-(6-(difluoromethoxy)pyridin-3-yl)-2-((5-(trifluoromethyl)pyridin-3-yl)methyl)pyridazin-3(2H)-one]",< 10 µM
3,"O=c1ccc(-c2cnc(OCC(F)(F)F)nc2)nn1Cc1cncc(C(F)(F)F)c1 [Compound 77, 6-(2-(2,2,2-trifluoroethoxy)pyrimidin-5-yl)-2-((5-(trifluoromethyl)pyridin-3-yl)methyl)pyridazin-3(2H)-one]",< 10 µM
4,"O=c1ccc(-c2cnc(OCC(F)(F)F)nc2)nn1Cc1cnccc1O [Compound 78, 2-((4-hydroxypyridin-3-yl)methyl)-6-(2-(2,2,2-trifluoroethoxy)pyrimidin-5-yl)pyridazin-3(2H)-one]",> 100 µM
5,"O=c1ccc(-c2cnc(OCC(F)(F)F)nc2)nn1Cc1cnccc1F [Compound 79, 2-((4-fluoropyridin-3-yl)methyl)-6-(2-(2,2,2-trifluoroethoxy)pyrimidin-5-yl)pyridazin-3(2H)-one]",< 10 µM
6,"O=c1ccc(-c2cnc(OCC(F)(F)F)nc2)nn1Cc1ccc[n+]([O-])c1 [Compound 80, 3-((6-oxo-3-(2-(2,2,2-trifluoroethoxy)pyrimidin-5-yl)pyridazin-1(6H)-yl)methyl)pyridine 1-oxide]",> 100 µM
7,"O=c1ccc(-c2cnc(OCC(F)(F)F)nc2)nn1Cc1cc[n+]([O-])cc1 [Compound 81, 4-((6-oxo-3-(2-(2,2,2-trifluoroethoxy)pyrimidin-5-yl)pyridazin-1(6H)-yl)methyl)pyridine 1-oxide]",> 100 µM
8,"O=c1ccc(-c2cnc(OCC(F)(F)F)nc2)nn1Cc1cc(F)c[n+]([O-])c1 [Compound 82, 3-fluoro-5-((6-oxo-3-(2-(2,2,2-trifluoroethoxy)pyrimidin-5-yl)pyridazin-1(6H)-yl)methyl) pyridine 1-oxide]",10 to 100 µM
9,"Cc1nc(Cn2nc(-c3cnc(OCC(F)(F)F)nc3)ccc2=O)co1 [Compound 83, 2-((2-methyloxazol-4-yl)methyl)-6-(2-(2,2,2-trifluoroethoxy)pyrimidin-5-yl)pyridazin-3(2H)-one]",10 to 100 µM
10,"O=c1ccc(-c2cnc(OCC(F)(F)F)nc2)nn1Cc1cnc(O)c(Cl)c1 [Compound 84, 2-((5-chloro-6-hydroxypyridin-3-yl)methyl)-6-(2-(2,2,2-trifluoroethoxy)pyrimidin-5-yl)pyridazin-3(2H)-one]",> 100 µM
11,"O=c1ccc(-c2cnc(OCC(F)(F)F)nc2)nn1Cc1cnoc1 [Compound 85, 2-(isoxazol-4-ylmethyl)-6-(2-(2,2,2-trifluoroethoxy)pyrimidin-5-yl)pyridazin-3(2H)-one]",10 to 100 µM
12,"Cc1cc(O)c(Cn2nc(-c3cnc(OCC(F)(F)F)nc3)ccc2=O)cn1 [Compound 86, 2-((4-hydroxy-6-methylpyridin-3-yl)methyl)-6-(2-(2,2,2-trifluoroethoxy)pyrimidin-5-yl)pyridazin-3(2H)-one]",> 100 µM
13,"Cc1ncc(Cn2nc(-c3cnc(OCC(F)(F)F)nc3)ccc2=O)cc1Cl [Compound 87, 2-((5-chloro-6-methylpyridin-3-yl)methyl)-6-(2-(2,2,2-trifluoroethoxy)pyrimidin-5-yl)pyridazin-3(2H)-one]",< 10 µM
14,"O=c1ccc(-c2cnc(OCC(F)(F)F)nc2)nn1Cc1nc(-c2ccc(F)cc2)no1 [Compound 88, 2-((3-(4-fluorophenyl)-1,2,4-oxadiazol-5-yl)methyl)-6-(2-(2,2,2-trifluoroethoxy)pyrimidin-5-yl)pyridazine-3(2H)-one]",< 10 µM
15,O=c1ccc(-c2cnc(OCC3(F)COC3)nc2)nn1Cc1nc(-c2ccccc2)no1 [Compound 91],< 10 µM

# The next lines start with the values.
row,IC50,SMILES
1,< 10 µM,"O=c1ccc(-c2cnc(N3CCCC3C(F)(F)F)nc2)nn1Cc1cncc(F)c1 (stereo not drawn) [Compound 54, 2-((5-fluoropyridin-3-yl)methyl)-6-(2-(2-(trifluoromethyl)pyrrolidin-l-yl)pyrimidin-5-yl)pyridazin-3(2H)-one]"
2,< 10 µM,"O=c1ccc(-c2cnc(OCC(F)(F)F)nc2)nn1Cc1nc2cc(F)ccc2o1 [Compound 55, 2-((5-fluorobenzo[d]oxazol-2-yl)methyl)-6-(2-(2,2,2,- trifluoroethoxy)pyrimidin-5-yl)pyridazin-3(2H)-one]"
3,< 10 µM,"COCc1cc(Cn2nc(-c3cnc(OCC(F)(F)F)nc3)ccc2=O)on1 [Compound 56, 2-((3-(methoxymethyl)isoxazol-5-yl)methyl)-6-(2-(2,2,2-trifluoroethoxy)pyrimidin-5-yl)pyridazin-3(2H)-one]"
4,< 10 µM,"Cn1cc(Cn2nc(-c3cnc(OCC(F)(F)F)nc3)ccc2=O)cn1 [Compound 58, 2-((1-methyl-1H-pyrazol-4-yl)methyl)-6-(2-(2,2,2-trifluoroethoxy)pyrimidin-5-yl)pyridazin-3(2H)-one]"
5,< 10 µM,"O=c1ccc(-c2cnc(OCC(F)(F)F)nc2)nn1Cc1cncs1 [Compound 59, 2-(thiazol-5-ylmethyl)-6-(2-(2,2,2-trifluoroethoxy)pyrimidin-5-yl)pyridazin-3(2H)-one]"
6,< 10 µM,"Cc1ncc(Cn2nc(-c3cnc(OCC(F)(F)F)nc3)ccc2=O)o1 [Compound 60, 2-((2-methyloxazol-5-yl)methyl)-6-(2-(2,2,2-trifluoroethoxy)pyrimidin-5-yl)pyridazin-3(2H)-one]"
7,< 10 µM,"Cc1ncc(Cn2nc(-c3cnc(OCC(F)(F)F)nc3)ccc2=O)s1 [Compound 61, 2-((2-methylthiazol-5-yl)methyl)-6-(2-(2,2,2-trifluoroethoxy)pyrimidin-5-yl)pyridazin-3(2H)-one]"
8,< 10 µM,"O=c1ccc(-c2cnc(NC34CC(C3)C4)nc2)nn1Cc1cncc(F)c1 [Compound 64, 6-(2-(bicyclo[1.1.1]pentan-1-ylamino)pyrimidin-5-yl)-2-((5-fluoropyridin-3-yl)methyl)pyridazine-3(2H)-one]"
9,< 10 µM,"CSc1ncc(-c2ccc(=O)n(Cc3cc(C)no3)n2)cn1 [Compound 65, 2-((3-methylisoxazol-5-yl)methyl)-6-(2-(methylthio)pyrimidin-5-yl)pyridazine-3(2H)-one]"
10,< 10 µM,"O=c1ccc(-c2cnc(OCC3(F)COC3)nc2)nn1Cc1cncc(F)c1 [Compound 66, 6-(2-((3-fluorooxetan-3-yl)methoxy)pyrimidin-5-yl)-2((5-fluoropyridin-3-yl)methyl)pyridazine-3(2H)-one]"
11,< 10 µM,"CCOc1ncc(-c2ccc(=O)n(Cc3cncc(F)c3)n2)cn1 [Compound 68, 6-(2-ethoxypyrimidin-5-yl)-2-((5-fluoropyridin-3-yl)methyl)pyridazine-3(2H)-one]"
12,< 10 µM,"COc1ncc(-c2ccc(=O)n(Cc3cncc(F)c3)n2)cn1 [Compound 69, 2-((5-fluoropyridin-3-yl)methyl)-6-(2-methoxypyrimidin-5-yl)pyridazine-3(2H)-one]"
13,< 10 µM,"COCCOc1ncc(-c2ccc(=O)n(Cc3cncc(F)c3)n2)cn1 [Compound 70, 2-((5-fluoropyridin-3-yl)methyl)-6-(2-(2-methoxyethoxy)pyrimidin-5-yl)pyridazine-3(2H)-one]"
14,< 10 µM,O=c1ccc(-c2ccc(NC34CC(C3)C4)nc2)nn1Cc1cccnc1 [Compound 71]
15,< 10 µM,"O=c1ccc(-c2ccc(NC34CC(C3)C4)nc2)nn1Cc1cncc(F)c1 [Compound 72, 6-(6-(bicyclo[1.1.1]pentan-1-ylamino)pyridin-3-yl)-2-((5-fluoropyridin-3-yl)methyl)pyridazin-3(2H)-one]"
16,< 10 µM,"O=c1ccc(-c2cnc(N3CCC[C@@H]3C(F)(F)F)nc2)nn1Cc1cncc(F)c1 [Compound 73, (R)-2-((5-fluoropyridin-3-yl)methyl)-6-(2-(2-(trifluoromethyl)pyrrolidin-1-yl)pyrimidin-5-yl)pyridazin-3(2H)-one]"
17,< 10 µM,"O=c1ccc(-c2cnc(N3CCC[C@H]3C(F)(F)F)nc2)nn1Cc1cncc(F)c1 [Compound 74, (S)-2-((5-fluoropyridin-3-yl)methyl)-6-(2-(2-(trifluoromethyl)pyrrolidin-1-yl)pyrimidin-5-yl)pyridazin-3(2H)-one]"
18,< 10 µM,"O=c1ccc(-c2cnc(NC34CC(C3)C4)nc2)nn1Cc1cncc(Cl)c1 [Compound 75, 6-(2-(bicyclo[1.1.1]pentan-1-ylamino)pyrimidin-5-yl)-2-((5-chloropyridin-3-yl)methyl)pyridazin-3(2H)-one]"
